According to the supplement of paper PMC10307832:

Columns and labels:
Assay in all cases: relative viability (nuclei count vs DMSO), 5 days (fraction); higher = more cells survive
[1] = compound: Nc1ccn([C@@H]2O[C@H](CO)[C@@H](O)C2(F)F)c(=O)n1 [Gemcitabine] + CCNC(=O)c1noc(-c2cc(C(C)C)c(O)cc2O)c1-c1ccc(CN2CCOCC2)cc1 [Luminespib] (partner 0.01 µM)
Summary of the method: (§1)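 Relative viability equals treated-well nuclei counts divided by vehicle-well nuclei counts. Counts came from 4× images of lung cancer cell lines grown in 1536-well plates for 5 days after pin-tool dosing on the day after seeding. Dosing used one drug alone or a fixed anchor-drug dose plus five library-drug doses (not always all listed) in √10 steps, and values are medians of duplicate plates.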

[2] = compound: Nc1ccn([C@@H]2O[C@H](CO)[C@@H](O)C2(F)F)c(=O)n1 [Gemcitabine] + CC(C)C[C@H](NC(=O)[C@H](Cc1ccccc1)NC(=O)c1cnccn1)B(O)O [Bortezomib] (partner 0.002 µM)
Summary of the method: as §1

[3] = compound: Nc1ccn([C@@H]2O[C@H](CO)[C@@H](O)C2(F)F)c(=O)n1 [Gemcitabine] + Cc1nc(Nc2ncc(C(=O)Nc3c(C)cccc3Cl)s2)cc(N2CCN(CCO)CC2)n1 [Dasatinib] (partner 0.075 µM)
Summary of the method: as §1

[4] = compound: Nc1ccn([C@@H]2O[C@H](CO)[C@@H](O)C2(F)F)c(=O)n1 [Gemcitabine] + CC(=O)c1c(C)c2cnc(Nc3ccc(N4CCNCC4)cn3)nc2n(C2CCCC2)c1=O [Palbociclib] (partner 0.5 µM)
Summary of the method: as §1

| Cell Line | relative viability ([1]; first compound 0.001 µM) | relative viability ([1]; first compound 0.003162 µM) | relative viability ([1]; first compound 0.01 µM) | relative viability ([1]; first compound 0.03162 µM) | relative viability ([1]; first compound 0.1 µM) | relative viability ([2]; first compound 0.001 µM) | relative viability ([2]; first compound 0.003162 µM) | relative viability ([2]; first compound 0.01 µM) | relative viability ([2]; first compound 0.03162 µM) | relative viability ([2]; first compound 0.1 µM) | relative viability ([3]; first compound 0.001 µM) | relative viability ([3]; first compound 0.003162 µM) | relative viability ([3]; first compound 0.01 µM) | relative viability ([3]; first compound 0.03162 µM) | relative viability ([3]; first compound 0.1 µM) | relative viability ([4]; first compound 0.001 µM) | relative viability ([4]; first compound 0.003162 µM) | relative viability ([4]; first compound 0.01 µM) | relative viability ([4]; first compound 0.03162 µM) | relative viability ([4]; first compound 0.1 µM) |
| --- | --- | --- | --- | --- | --- | --- | --- | --- | --- | --- | --- | --- | --- | --- | --- | --- | --- | --- | --- | --- |
| NCI-H1792 | 0.382 | 0.286 | 0.233 | 0.206 | 0.167 | 1.08 | 0.925 | 0.308 | 0.133 | 0.093 | 0.785 | 0.485 | 0.329 | 0.192 | 0.142 | 0.699 | 0.596 | 0.395 | 0.254 | 0.194 |
| NCI-H1355 | 0.724 | 0.62 | 0.24 | 0.22 | 0.213 | 1.17 | 0.948 | 0.521 | 0.145 | 0.16 | 0.813 | 0.695 | 0.226 | 0.196 | 0.143 | 0.403 | 0.365 | 0.251 | 0.168 | 0.146 |
| SW 1573 | 0.192 | 0.166 | 0.0849 | 0.154 | 0.112 | 1.16 | 0.853 | 0.538 | 0.086 | 0.0926 | 0.481 | 0.258 | 0.0669 | 0.0389 | 0.0494 | 0.432 | 0.308 | 0.131 | 0.0954 | 0.0788 |
| NCI-H2347 | 0.412 | 0.513 | 0.302 | 0.448 | 0.282 | 0.621 | 0.961 | 0.534 | 0.653 | 0.401 | 0.291 | 0.304 | 0.257 | 0.22 | 0.195 | 0.412 | 0.432 | 0.404 | 0.364 | 0.325 |
| LCLC-97TM1 | 0.813 | 0.86 | 0.334 | 0.202 | 0.129 | 0.752 | 0.19 | 0.0897 | 0.0533 | 0.0696 | 0.819 | 0.803 | 0.429 | 0.159 | 0.106 | 0.17 | 0.135 | 0.134 | 0.0816 | 0.0933 |
| EMC-BAC-2 | 1.29 | 1.17 | 1.04 | 0.222 | 0.194 | 1.09 | 1.1 | 1.08 | 0.161 | 0.169 | 0.348 | 0.352 | 0.181 | 0.124 | 0.137 | 0.529 | 0.515 | 0.46 | 0.256 | 0.25 |
| NCI-H1975 | 0.173 | 0.158 | 0.154 | 0.182 | 0.13 | 0.385 | 0.401 | 0.207 | 0.198 | 0.155 | 0.419 | 0.574 | 0.241 | 0.0982 | 0.103 | 0.638 | 0.502 | 0.48 | 0.148 | 0.122 |
| BEN | 0.528 | 0.317 | 0.14 | 0.12 | 0.107 | 0.79 | 0.669 | 0.198 | 0.118 | 0.113 | 0.331 | 0.254 | 0.18 | 0.0876 | 0.109 | 0.448 | 0.38 | 0.364 | 0.291 | 0.273 |
| NCI-H23 | 0.214 | 0.212 | 0.192 | 0.175 | 0.217 | 0.848 | 0.511 | 0.148 | 0.141 | 0.0999 | 0.865 | 0.36 | 0.126 | 0.135 | 0.1 | 0.383 | 0.245 | 0.158 | 0.156 | 0.139 |
| NCI-H520 | 0.22 | 0.231 | 0.224 | 0.201 | 0.252 | 0.604 | 0.698 | 0.295 | 0.154 | 0.11 | 0.212 | 0.258 | 0.161 | 0.151 | 0.154 | 0.237 | 0.23 | 0.174 | 0.164 | 0.146 |
| CAL-12T | 0.87 | 0.238 | 0.245 | 0.236 | 0.173 | 1.01 | 0.822 | 0.521 | 0.267 | 0.254 | 0.473 | 0.395 | 0.302 | 0.128 | 0.114 | 0.628 | 0.48 | 0.292 | 0.161 | 0.16 |
| EPLC-272H | 0.145 | 0.323 | 0.337 | 0.16 | 0.135 | 0.87 | 0.786 | 0.419 | 0.358 | 0.121 | 0.421 | 0.433 | 0.153 | 0.112 | 0.0503 | 0.384 | 0.323 | 0.275 | 0.244 | 0.21 |
| LCLC-103H | 0.956 | 1.01 | 0.845 | 0.314 | 0.183 | 1.1 | 1.04 | 1.05 | 1.11 | 0.934 | 0.54 | 0.53 | 0.502 | 0.179 | 0.223 | 0.491 | 0.504 | 0.497 | 0.42 | 0.406 |
| NCI-H2405 | 0.73 | 0.746 | 0.587 | 0.207 | 0.216 | 0.974 | 0.957 | 0.582 | 0.275 | 0.231 | 0.2 | 0.196 | 0.199 | 0.151 | 0.159 | 0.527 | 0.483 | 0.422 | 0.203 | 0.188 |
| HCC-15 | 0.305 | 0.234 | 0.32 | 0.15 | 0.0821 | 1.06 | 0.986 | 0.931 | 0.915 | 0.255 | 0.589 | 0.666 | 0.561 | 0.0908 | 0.0718 | 0.811 | 0.722 | 0.634 | 0.327 | 0.0961 |
| PC-3 [JPC-3] | 0.79 | 0.685 | 0.415 | 0.349 | 0.314 | 0.835 | 0.785 | 0.512 | 0.286 | 0.237 | 1.01 | 0.925 | 0.635 | 0.252 | 0.207 | 0.512 | 0.472 | 0.499 | 0.471 | 0.443 |
